In general, EC50 refers to the concentration needed to bring the measured effect to its halfway point. A high value points to lower potency in that assay.

In series [1] the target is T1, human CaSR (Homo sapiens, UniProt P41180).
T1 construct: The ORF coding for the human CaSR (genebank: NM_000388)
T1 sequence (P41180 20-1078): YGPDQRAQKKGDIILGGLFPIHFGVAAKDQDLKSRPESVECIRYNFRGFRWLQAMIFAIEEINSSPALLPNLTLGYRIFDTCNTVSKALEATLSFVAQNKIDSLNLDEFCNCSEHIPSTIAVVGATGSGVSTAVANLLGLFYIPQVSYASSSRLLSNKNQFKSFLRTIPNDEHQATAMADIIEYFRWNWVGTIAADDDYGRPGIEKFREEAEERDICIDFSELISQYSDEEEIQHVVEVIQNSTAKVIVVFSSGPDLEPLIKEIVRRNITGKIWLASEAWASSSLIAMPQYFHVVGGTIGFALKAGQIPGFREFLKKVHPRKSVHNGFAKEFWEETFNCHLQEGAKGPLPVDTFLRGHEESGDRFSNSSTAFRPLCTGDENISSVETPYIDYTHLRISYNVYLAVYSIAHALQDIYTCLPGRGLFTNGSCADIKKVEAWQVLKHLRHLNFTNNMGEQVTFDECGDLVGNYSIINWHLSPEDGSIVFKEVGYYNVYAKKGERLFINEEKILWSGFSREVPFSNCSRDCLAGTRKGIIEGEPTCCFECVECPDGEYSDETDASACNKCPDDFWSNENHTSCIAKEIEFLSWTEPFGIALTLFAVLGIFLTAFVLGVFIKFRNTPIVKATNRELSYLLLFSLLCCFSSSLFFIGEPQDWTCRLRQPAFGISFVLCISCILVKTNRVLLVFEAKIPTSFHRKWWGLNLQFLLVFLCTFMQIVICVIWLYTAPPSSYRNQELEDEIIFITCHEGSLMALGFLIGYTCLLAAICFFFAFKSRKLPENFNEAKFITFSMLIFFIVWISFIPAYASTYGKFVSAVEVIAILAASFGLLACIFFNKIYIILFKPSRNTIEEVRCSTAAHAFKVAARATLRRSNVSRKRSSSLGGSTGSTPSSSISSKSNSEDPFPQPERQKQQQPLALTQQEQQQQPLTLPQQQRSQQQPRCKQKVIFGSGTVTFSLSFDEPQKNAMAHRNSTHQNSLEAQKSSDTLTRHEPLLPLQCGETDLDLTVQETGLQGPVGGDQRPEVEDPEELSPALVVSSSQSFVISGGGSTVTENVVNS
Put plainly: Functional whole cell assay (modulation of human CaSR), IP1 accumulation in CHO-K1 cells. Conditions: CHO-K1 cells stably expressing human CaSR, final Ca2+ 1.9 mM, IP1 readout; concentration giving 50% of maximum agonistic response. It is filed as cell-based. An excerpt: The assay investigates a compound's functional ability to act as a biological positive modulator on the human CaSR. Activation of the receptor expressed on CHO-K1 cells is detected through the G alpha q pathway, the activation of phospholipase C and the accumulation of intracellular inositol phosphate (IP) as described earlier [Sandrine Ferry, Bruno Chatel, Robert H. Dodd, Christine Lair, Danielle Gully, Jean-Pierre Maffrand, and Martial Ruat. Effects of Divalent Cations and of a Calcimimetic on Adrenocorticotropic Hormone Release in Pituitary Tumor Cells. Biochemical and biophysical research Communications 238, 866-873 (1997)]. The human CaSR is stably expressed on a CHO-K1 cell clone, stimulated with a basal level of calcium and challenged with the tested compound. The level of IP1 is determined using the IP-One Terbium htrf kit (Cisbio, France). CHO-K1 cells not transfected with the CaSR fail to elicit an IP1 response upon calcium and/or compound stimulation.
The ORF coding for the human CaSR (genebank: NM_000388) was acquired from Invitrogen Corp, USA and subsequently cloned into the mammalian expression vector pCDA3.1.
CHO-K1 cells were transfected using Lipofectamine according to manufacturer's protocol (400.000 cells/well were seeded in a 6-well plate and transfected after 24 hours using 2 μg DNA and 5 μl lipofectamine). After another 24 hours the cells were detached, seeded and subjected to 1 mg/ml of G-418. Following 7 days growth single clones were picked, the CaSR expression evaluated using the 5C10 antibody against CaSR, the clones with the highest expression were selected and tested for functional response. The preferred clone was cultured according to standard procedures described in ATCC (American Type Culture Collection) protocols for CHO-K1 with the addition of 500 μg/ml G-418.
On the assay day, cells were thawed, harvested and resuspended to 4*10^6 cells/ml in stimulation buffer (containing: Hepes 10 mM, MgCl2 0.5 mM, KCl 4.2 mM, NaCl 146 mM, glucose 5.5 mM, LiCl 50 mM, BSA 0.5% at pH 7.4). Ten μl cell solution was pipetted into wells of a white 384-well plate (Perkin Elmer Optiplate) containing 2 μl compound diluted in assay buffer (containing: Hepes 10 mM, MgCl2 0.5 mM, KCl 4.2 mM, NaCl 146 mM, glucose 5.5 mM, LiCl 50 mM, CaCl2 11.4 mM at pH 7.4), resulting in a final Ca^2+ concentration of 1.9 mM. After compound stimulation for 1 hour at 37° C. and 15 min at room temperature, 10 ul of IP-One assay detection reagent (prepared as described by the IP-One assay kit manufacturer) was added and the plate was incubated for another 1 hour at room temperature. Finally the plate was read using a Perkin Elmer EnVision, according to the protocol supplied by the IP-One assay kit manufacturer. The FRET ratio was calculated by dividing the 665 nm emission signal with that of the 615 nm.
The molar concentration of a compound that produces 50% of the maximum agonistic response (the […] value) is calculated according to the equation “General sigmoidal curve with Hill slope, a to d” (Equation 1). This model describes a sigmoidal curve with an adjustable baseline. The equation can be used to fit curves where response is either increasing or decreasing with respect to the independent variable, X.
y=(a−d)/(1+(x/c)̂b)+d Equation 1.
x=concentration of tested compound y=response (%) a=min response as compound concentration approaches 0 d=max response as concentration of tested compound is increasing c=IC50 for the curve b=Hill coefficient or curve slope

Series [2] is described as follows: Clearance in human liver microsomes. Type of series: in vitro ADME. Conditions: hepatic extraction ratio; 0.5 μM compound, 0.5 mg/mL microsomes, 1 mM NADPH, 30 min. The procedure: Test compound concentration is 0.5 μM, microsome concentration is 0.5 mg/mL and NADPH concentration is 1 mM in the incubation. The described method is performed by the liquid handling system Tecan RSP and is based on a 96-well format.
Control incubations with test compound without NADPH and test compound without microsomes are conducted to investigate non-CYP mediated metabolism and stability in phosphate buffer at 37° C., respectively.
The human liver microsomal suspension in phosphate buffer is mixed with NADPH. The mixture is pre-heated (7 min) to 37° C. Test compound is added, and the mixture is incubated for 30 minutes. Incubations are run in duplicate. Samples are withdrawn at predetermined stop times and mixed with methanol containing internal standard (IS) to terminate all enzyme activity and precipitate proteins. A control without NADPH (to detect problems such as nonspecific protein binding, heat instability or non-CYP mediated metabolism) and a control without microsomes (for assessing compound stability in the absence of any active enzymes) are tested.
The percentage of organic solvent in the incubations is less than 1%. Careful inspections of reagents are performed prior to the start of any experiment to ensure all reagents are in solution.
The 96-well plates are centrifuged. Test compound depletion, using a compound specific LC/MS/MS method, is determined.
The logarithm of the peak area ratios of test compound to internal standard (IS) versus incubation time is plotted in a graph.
The rate constant (k) (min^−1) of test compound depletion is calculated from the linear part of the curve and the half-time (t1/2) in minutes can be calculated from the rate constant (Eq. 2).
Intrinsic clearance (Clint) (mL/min/mg protein) is calculated from: […]
where c is the microsomal protein concentration in mg/mL.
Intrinsic clearance is the maximum ability of the liver to extract a drug in the absence of blood flow restrictions.
Conversion to apparent clearance (Clapp) (mL/min/kg) is done by Eq. 4:
Clapp=Clint×a×b/d (Eq. 4)
where a, b and d are the scaling factors for normalizing Clint to human body weight.
The following human scaling factors are used:
a: 45 (microsomal protein/liver weight (mg/g)) b: 1500 (liver weight (g)) d: 70 (body weight (kg))
Hepatic clearance (Clh) (mL/min/kg) based on the well-stirred model is described as followed:
Clh=(Clapp·Q)/(Clapp+Q) (Eq. 5)
where Q is the liver blood flow in mL/min/kg (20 in humans).
Dividing hepatic clearance with liver blood flow, the hepatic extraction ratio (%) can be calculated:
Apparent clearance below approximately 10 mL/min/kg human body weight (corresponding to extraction ratio of approx. 33%) is considered as low clearance (high metabolic stability). Apparent intrinsic clearance above approximately 60 mL/min/kg human body weight (corresponding to extraction ratio of approx. 75%) is considered as high clearance (low metabolic stability).
Background: Microsomes from liver hold many membrane-bound enzymes, among them those of drug oxidation.

In turn, `C[C@@H](N[C@H]1CC[C@@H](c2ccc(NCCS(N)(=O)=O)nc2)C1)c1cccc2c1OCO2` [Compound 114, 2-[[5-[(1R,3S)-3-[[(1R)-1-(1,3-Benzodioxol-4-yl)ethyl]amino]cyclopentyl]-2-pyridyl]amino]ethanesulfonamide] showed a concentration giving a half-maximal response (EC50) in series [1] of 200 to 1000 nM. For the same compound, the “Clearance (% Eh) in human liver microsomes” value (“Clearance (% Eh)” for short) in series [2] was “A (A: Eh < 33%)”.
Consider `CCOc1cccc([C@@H](C)N[C@H]2CC[C@@H](c3ccc(N4CCNC(=O)C4)nc3)C2)c1` [Compound 117, 4-[5-[(1R,3S)-3-[[(1R)-1-(3-Ethoxyphenyl)ethyl]amino]cyclopentyl]-2-pyridyl]piperazin-2-one], for which the EC50 in series [1] lay within 200 to 1000 nM. Moreover, the “Clearance (% Eh)” value in series [2] is recorded as “A (A: Eh < 33%)”.
In the case of `C[C@@H](N[C@H]1CC[C@@H](c2ccc(NCCS(N)(=O)=O)nc2)C1)c1cccc(Cl)c1` [Compound 121, 2-[[5-[(1R,3S)-3-[[(1R)-1-(3-Chlorophenyl)ethyl]amino]cyclopentyl]-2-pyridyl]amino]ethanesulfonamide], the EC50 in series [1] lay in the range of 200 to 1000 nM. Moreover, the “Clearance (% Eh)” value in series [2] was “A (A: Eh < 33%)”.
The like results for `COc1cc([C@@H](C)N[C@H]2CC[C@@H](c3cnc(NCCNS(C)(=O)=O)nc3)C2)ccc1F` [Compound 123, N-[2-[[5-[(1R,3S)-3-[[(1R)-1-(4-Fluoro-3-methoxy-phenyl)ethyl]amino]cyclopentyl]pyrimidin-2-yl]amino]ethyl]methanesulfonamide] were, in that order, 200 to 1000 nM and “A (A: Eh < 33%)”.

(Values after patent US20130267516A1, “SUBSTITUTED CYCLOPENTYL-AZINES AS CASR-ACTIVE COMPOUNDS” (LEO PHARMA A/S, priority 2010, published 2013).)
